Experimental findings from ChEMBL document CHEMBL4814006, “Novel amino substituted tetracyclic imidazo[4,5-b]pyridine derivatives: Design, synthesis, antiproliferative activity and DNA/RNA binding study” (Eur J Med Chem, 2021) are described below.

Each structure is given as a SMILES string. Calls of active or inactive are those of the source. The rule behind the calls is not given here.

Series [1] relates to HEK293. The series can be described thus: Cytotoxicity against human HEK293 cells assessed as inhibition of cell growth incubated for 72 hrs by MTT assay. In kind it is cell-based. To be noted: HEK293, 72 h. On the technique in general: Tetrazolium dyes change colour on reduction, which living cells bring about.
Series [2] in a line: Selectivity index, ratio of IC50 for human HEK293 cells to IC50 for human HCT116 cells. To be noted: HEK293 cells versus HCT116 cells, read-out: Ratio IC50. In kind it is toxicity.
In series [3] the test system is MCF7. Put plainly: Antiproliferative activity against human MCF7 cells assessed as inhibition of cell growth incubated for 72 hrs by MTT assay. Format: functional, cell-based. To be noted: MCF7, 72 h.
In series [4] the test system is HCT-116. The series can be described thus: Antiproliferative activity against human HCT-116 cells assessed as inhibition of cell growth incubated for 72 hrs by MTT assay. To be noted: HCT-116, 72 h. In kind it is functional, cell-based.
Series [5] concerns NCI-H460. Put plainly: Antiproliferative activity against human NCI-H460 cells assessed as inhibition of cell growth incubated for 72 hrs by MTT assay. In kind it is functional, cell-based. To be noted: NCI-H460, 72 h.
Series [6] deals with Poly(dA-dT)oligonucleotide. The series can be described thus: Binding affinity to poly(dAdT)2 DNA (unknown origin) in sodium cacodylate buffer at pH 7 by CD spectroscopy. In kind it is nucleic-acid assay.
Series [7] deals with Poly(dA-dT)oligonucleotide. Put plainly: Binding affinity to poly(dAdT)2 DNA (unknown origin) assessed as change in melting temperature in sodium cacodylate buffer at pH 7 at compound:polynucleotide concentration ratio of 0.3 by UV/Vis spectrophotometric analysis. In kind it is nucleic-acid assay.
In series [8] the test system is Poly(dG-dC)oligonucleotide. Put plainly: Binding affinity to poly(dGdC)2 DNA (unknown origin) in sodium cacodylate buffer at pH 7 by CD spectroscopy. Format: nucleic-acid assay.
Series [9] concerns Poly(dG-dC)oligonucleotide. Put plainly: Binding affinity to poly(dGdC)2 DNA (unknown origin) assessed as binding constant in sodium cacodylate buffer at pH 7 by fluorescence spectroscopy. Format: nucleic-acid assay.
The test system of series [10] is Poly(dA-dT)oligonucleotide. The series can be described thus: Binding affinity to poly(dAdT)2 DNA (unknown origin) assessed as ratio of bound compound to polynucleotide phosphate in sodium cacodylate buffer at pH 7 by fluorescence spectroscopy based Scatchard method. In kind it is nucleic-acid assay.
The test system of series [11] is Quadruplex DNA. The series can be described thus: Binding affinity to human Tel22 G quadruplex DNA assessed as ratio of fluorescence intensity of compound-polynucleotide complex to fluorescence intensity of compound in sodium cacodylate buffer at pH 7 at binding stoichiometry ratio of 1:1 by fluorescence spectroscopy. Format: nucleic-acid assay.
Series [12] deals with Poly(dA-dU)oligonucleotide. The series can be described thus: Binding affinity to polyA-polyU RNA (unknown origin) in sodium cacodylate buffer at pH 7 by CD spectroscopy. Format: nucleic-acid assay.
The test system of series [13] is Poly(dA-dT)oligonucleotide. The series can be described thus: Binding affinity to poly(dAdT)2 DNA (unknown origin) assessed as ratio of fluorescence intensity of compound-polynucleotide complex to fluorescence intensity of compound in sodium cacodylate buffer at pH 7 by fluorescence spectroscopy based Scatchard method. Format: nucleic-acid assay.
The test system of series [14] is Calf thymus DNA. Put plainly: Binding affinity to calf thymus DNA assessed as ratio of bound compound to polynucleotide phosphate in sodium cacodylate buffer at pH 7 by fluorescence spectroscopy based Scatchard analysis. To be noted: Bos taurus.
Series [15] concerns Poly(dA-dU)oligonucleotide. Put plainly: Binding affinity to polyA-polyU RNA (unknown origin) assessed as binding constant in sodium cacodylate buffer at pH 7 by fluorescence spectroscopy. Format: nucleic-acid assay.
Series [16] has as its system Calf thymus DNA. Put plainly: Binding affinity to calf thymus DNA assessed as binding constant in sodium cacodylate buffer at pH 7 by fluorescence spectroscopy. To be noted: Bos taurus.
Series [17] deals with Poly(dA-dU)oligonucleotide. The series can be described thus: Binding affinity to polyA-polyU RNA (unknown origin) assessed as change in melting temperature in sodium cacodylate buffer at pH 7 at compound:polynucleotide concentration ratio of 0.3 by UV/vis spectrophotometric analysis. In kind it is nucleic-acid assay.
Series [18] relates to Quadruplex DNA. The series can be described thus: Binding affinity to human Tel22 G quadruplex DNA assessed as ratio of fluorescence intensity of compound-polynucleotide complex to fluorescence intensity of compound in sodium cacodylate buffer at pH 7 at binding stoichiometry ratio of 1:2 by fluorescence spectroscopy. In kind it is nucleic-acid assay.
Series [19] concerns Poly(dA-dU)oligonucleotide. Put plainly: Binding affinity to polyA-polyU RNA (unknown origin) assessed as ratio of bound compound to polynucleotide phosphate in sodium cacodylate buffer at pH 7 by fluorescence spectroscopy based Scatchard method. In kind it is nucleic-acid assay.
The test system of series [20] is Poly(dG-dC)oligonucleotide. Put plainly: Binding affinity to poly(dGdC)2 DNA (unknown origin) assessed as ratio of bound compound to polynucleotide phosphate in sodium cacodylate buffer at pH 7 by fluorescence spectroscopy based Scatchard method. In kind it is nucleic-acid assay.
In series [21] the test system is Calf thymus DNA. The series can be described thus: Binding affinity to calf thymus DNA assessed as change in melting temperature in sodium cacodylate buffer at pH 7 at compound:polynucleotide concentration ratio of 0.3 by UV/Vis spectrophotometric analysis. Format: nucleic-acid assay. To be noted: Bos taurus.
For series [22], the system named is Poly(dA-dT)oligonucleotide. The series can be described thus: Binding affinity to poly(dAdT)2 DNA (unknown origin) assessed as binding constant in sodium cacodylate buffer at pH 7 by fluorescence spectroscopy. Format: nucleic-acid assay.
The subject of series [23] is Calf thymus DNA. Put plainly: Binding affinity to calf thymus DNA assessed as ratio of fluorescence intensity of compound-polynucleotide complex to fluorescence intensity of compound in sodium cacodylate buffer at pH 7 by fluorescence spectroscopy based Scatchard method. To be noted: Bos taurus.
In series [24] the test system is Quadruplex DNA. The series can be described thus: Binding affinity to human Tel22 G quadruplex DNA assessed as binding constant in sodium cacodylate buffer at pH 7 at binding stoichiometry ratio of 1:2 by fluorescence spectroscopy. Format: nucleic-acid assay.
Series [25] relates to Poly(dA-dU)oligonucleotide. Put plainly: Binding affinity to polyA-polyU RNA (unknown origin) assessed as ratio of fluorescence intensity of compound-polynucleotide complex to fluorescence intensity of compound in sodium cacodylate buffer at pH 7 by fluorescence spectroscopy based Scatchard method. In kind it is nucleic-acid assay.
The test system of series [26] is Poly(dG-dC)oligonucleotide. Put plainly: Binding affinity to poly(dGdC)2 DNA (unknown origin) assessed as ratio of fluorescence intensity of compound-polynucleotide complex to fluorescence intensity of compound in sodium cacodylate buffer at pH 7 by fluorescence spectroscopy based Scatchard method. Format: nucleic-acid assay.
Series [27] deals with Quadruplex DNA. Put plainly: Binding affinity to human Tel22 G quadruplex DNA assessed as binding constant in sodium cacodylate buffer at pH 7 at binding stoichiometry ratio of 1:1 by fluorescence spectroscopy. In kind it is nucleic-acid assay.
For series [28], the system named is Calf thymus DNA. Put plainly: Binding affinity to calf thymus DNA in sodium cacodylate buffer at pH 7 by CD spectroscopy. To be noted: Bos taurus.
The test system of series [29] is Quadruplex DNA. The series can be described thus: Binding affinity to human Tel22 G quadruplex DNA assessed as change in melting temperature in sodium cacodylate buffer at pH 7 by UV/Vis spectrophotometric analysis. In kind it is nucleic-acid assay.

As for `N#Cc1c(Cl)c2ccccc2n2c1nc1ncccc12`, the concentration for half-maximal inhibition (IC50) (commonly the midpoint of a concentration-inhibition curve) in series [1] stood at 1600 nM; in [3], 2000 nM; in series [4], 100 nM; in series [5], 4600 nM. Further, in [2], the selectivity ratio was 16.
In the case of `N#Cc1c(N2CCNCC2)c2ccc(N3CCNCC3)cc2n2c1nc1cccnc12`, the IC50 in series [1] amounted to 200 nM; in series [3], 400 nM; in [4] it was 400 nM; in [5], 700 nM. For the same molecule, the outcome in series [6], in [8] and in series [12] was Active. For the same molecule, the results for the ΔTm in series [7], in series [17] and in [21] were 14.3 °C, 15 °C and 7.5 °C, respectively. Further, the log Ks turned out to be 6.8 in [9]; 6.6 in series [15]; 6.3 in series [16]; 6.8 in series [22]; 6.85 in series [24]; 5.04 in [27]. Besides, the Ratio stood at 0.2 in series [10]; 0.77 in [11]; 1.5 in series [13]; 0.3 in series [14]; 0.81 in [18]; 0.1 in [19]. The Ratio was 0.3 in series [20], 0.1 in [23], 2 in series [25] and under 0.1 in series [26].
Regarding `CC(C)CNc1c(C#N)c2nc3cccnc3n2c2ccccc12`, the IC50 in [1] was over 100000 nM; in series [3], at least 100000 nM; in [4], at least 100000 nM; in series [5], at least 100000 nM. Also, the outcome in series [6] and in series [28] was Active. Further, the ΔTm (usually the change in melting temperature against a reference sample) was 0.8 °C in series [7], 0 °C in series [17], 0.8 °C in series [21] and 1.8 °C in series [29]. The outcome in series [8] was inactive. Further, the Ratio was 0.1 in series [10]; 5.52 in series [11]; 10.4 in series [13]; under 0.1 in series [19]; 2.5 in series [25]. For the same molecule, the log Ks in series [15] was determined as 5.3; in [22] it was 4.6; in [27], 4.51.
For the molecule `N#Cc1c(N2CCNCC2)c2ccc(N3CCNCC3)cc2n2c1nc1ncccc12`, the concentration for half-maximal inhibition (IC50) in series [1] was over 100000 nM; in [3], at least 100000 nM; in [4], at least 100000 nM; in series [5], at least 100000 nM. In addition, the result in series [6], in series [8] and in series [12] was Active. Moreover, the thermal shift (ΔTm) in series [7] was 11.1 °C; in series [17], 13.5 °C; in series [21], 6.6 °C; in [29], 2.5 °C. In addition, the log Ks in series [9] was found to be 6.6; in series [15], 6.5; in series [16], 6.4; in series [22], 6.8; in series [24], 7.16; in series [27], 5.33. Also, the Ratio in [10] is under 0.1; in series [11], 0.62; in [13] it was 1.3; in series [14] it was 0.1; in series [18], 0.89; in [19] it was 0.1. Moreover, the Ratio is 0.2 in series [20], 0 in series [23], 1.8 in [25] and 0 in series [26].
